Laboratory results taken from patent US6943192B2, “Treatment regimen for administration of phenylacetylglutamine, phenylacetylisoglutamine, and/or phenylacetate” (priority 1998, dated 2005).

Columns and labels:
[1] = cited from earlier work
[2] = orally administered to rats; cited from earlier work
[3] = tested on: human colon adenocarcinoma; conditions: cited from earlier work
KYN-1 = conditions: cited from earlier work
KMCH-1 = conditions: cited from earlier work
[4] = cited from earlier work; remark: listed apart in the source
KIM-1 = conditions: cited from earlier work
rat Nb2 lymphoma = conditions: cited from earlier work
S180 cells = conditions: mice implanted with S180 cells; cited from earlier work
cancer = conditions: clinical trials; cited from earlier work
[5] = peak plasma level after oral administration to rats; format: in vivo; conditions: orally administered to rats
Description: First, Burzynski et al. (Drugs Exptl. Clin. Res. 12 Suppl. 1, 11-16 (1986)) reported complete colony reduction of HBL-100 and Ki No. 1 tumor cell lines with 5.0 mg/mL of either phenylacetic acid or antineoplaston AS2-1. […] Under typical administration regimes of antineoplaston AS2-1, the peak plasma levels of phenylacetic acid are approximately […], roughly […] less than the cytostatic concentration observed in tissue culture experiments.

[6] = tested on: human breast cancer cell line MDA-MB-231; conditions: cited from earlier work
neuroblastoma = conditions: cited from earlier work
[7] = tested on: human promyelocytic leukemia HL-60; conditions: cited from earlier work
Ki-1 = conditions: cited from earlier work
malignant melanoma = conditions: cited from earlier work
astrocytoma = conditions: cited from earlier work
[8] = tested on: chronic lymphocytic leukemia; conditions: cited from earlier work
[9] = tested on: K562 erythroleukemia cells; conditions: cited from earlier work
ovarian carcinoma = conditions: cited from earlier work
murine fibrosarcoma V7T = conditions: cited from earlier work
medulloblastoma = conditions: cited from earlier work
[10] = tested on: premalignant mesenchymal C3H 10T1/2 cells; conditions: cited from earlier work
[11] = tested on: breast carcinoma cell line HBL-100; conditions: cited from earlier work
[12] = tested on: hormonally refractory prostate adenocarcinoma PC3; conditions: cited from earlier work

## O=C1CCC(NC(=O)Cc2ccccc2)C(=O)N1 (centres unmarked) [3-phenylacetylamino-2,6-piperidinedione]
[1]
  clearance in vivo: rapidly cleared in vivo
[2]
  peak plasma level: approximately 0.2 mg/mL
[3]
  inhibition of the growth curve: Dose-dependent inhibition
KYN-1
  inhibition of the growth curve: Dose-dependent inhibition
KMCH-1
  inhibition of the growth curve: Dose-dependent inhibition
[4]
  solubility in water: poorly soluble in water
KIM-1
  inhibition of the growth curve: Dose-dependent inhibition
Rat Nb2 lymphoma
  inhibition of the growth curve: Dose-dependent inhibition
S180 cells
  cAMP levels in the livers and tumors of treated mice relative to control mice: significantly elevated
cancer
  efficacy in treating cancer: effective in treating cancer
[5]
  peak plasma level, fold less than the cytostatic concentration in tissue culture: roughly 10 fold
[6]; MDA-MB-231
  concentration at which cytostasis was observed: 2.0 mg/mL
[6]
  effect on cultured MDA-MB-231: cytostatic effect

## O=C(O)Cc1ccccc1 [phenylacetic acid]
neuroblastoma
  terminal differentiation or phenotypic reversion: promoted terminal differentiation or phenotypic reversion
[7]
  terminal differentiation or phenotypic reversion: promoted terminal differentiation or phenotypic reversion
Ki-1; Ki No. 1
  concentration giving complete colony reduction: 5.0 mg/mL
Ki-1; Ki-1
  growth inhibition: dose-dependent growth inhibition
Malignant melanoma
  terminal differentiation or phenotypic reversion: promoted terminal differentiation or phenotypic reversion
astrocytoma
  terminal differentiation or phenotypic reversion: promoted terminal differentiation or phenotypic reversion
[8]
  terminal differentiation or phenotypic reversion: promoted terminal differentiation or phenotypic reversion
[9]
  hemoglobin production: enhanced hemoglobin production
Ovarian carcinoma
  terminal differentiation or phenotypic reversion: promoted terminal differentiation or phenotypic reversion
Murine fibrosarcoma V7T
  terminal differentiation or phenotypic reversion: promoted terminal differentiation or phenotypic reversion
medulloblastoma
  terminal differentiation or phenotypic reversion: promoted terminal differentiation or phenotypic reversion
[10]
  adipocyte conversion: caused adipocyte conversion
[10]; in distinction to 5-aza-2-deoxycitidine
  tumor progression in premalignant cells: did not cause tumor progression
[11]
  concentration giving complete colony reduction: 5.0 mg/mL
  growth inhibition: dose-dependent growth inhibition
[12]
  terminal differentiation or phenotypic reversion: promoted terminal differentiation or phenotypic reversion
